Data published in US10767151B2, “Device for cell culture” (priority 2008, dated 2020).
Entries after “also recorded” stand apart in the source; their conditions may differ. Where a SMILES comes first, the peptide text is derived from it. [ ]: non-standard residue; d: D form. The star is where a group is joined. Nle = CCCC[C@H](N)C(=O)O; Cbz = O=C(OCc1ccccc1)*; CH2F = FC*

Assays:
Assay type in all cases: cell-based, mouse
cortical neurons = assay: Saponin axotomy of cortical neurons in three-chamber device, axonal fragmentation by tubulin labeling (Example 20); conditions: for occurrence of axon fragmentation after axotomy: 50 μM applied to the distal segments of axons at the time of axotomy, FIG. 29; for protective effect against axon fragmentation after axotomy: applied 24 h before axotomy (not shown)
Method: The cortices of 14-day mouse embryos are dissected and dissociated as has already been described elsewhere, for example Eur J Neurosci 2001 June; 13(11): 2037-46 William S et al. The neurons are seeded into the somatic chamber (also called compartment) of the circuits at a density of 10^5 cells/cm^2. In this manner, about 4×10^4 neurons are seeded into the somatic chamber. The culture medium consists of DMEM containing 4.5 g/l D-glucose and pyruvate (Invitrogen, Carlsbad, USA), supplemented with 10% of FCS (fetal calf serum; PAA Laboratories, Pasching, Germany) and with 2% of B27 (Invitrogen). The medium is replaced every three days until the beginning of the experiment, and the cultures are conserved in an incubator at 37° C. and 5% CO2. The experiments are carried out after 7 to 8 days of culture in vitro. The calpain inhibitor N-acetyl-Leu-Leu-Nle-CHO (ALLN; Calbiochem), the general caspase inhibitor Z—V-A-D-fluoromethyl ketone (z-VAD; R1D Systems, Minneapolis, USA) and β-nicotinamide adenine dinucleotide hydrate (βNAD; Sigma) are introduced into the culture medium at the beginning of the experiments.
In order to carry out the axotomy, a flow of 15 μl of medium containing 0.1% of saponin is produced for 2 minutes in the central chamber. In order to avoid the flow of detergent entering the microchannels, an overpressure is maintained in the somatic and axonal chambers throughout the experiment. After 2 minutes of flow, the medium containing the saponin is removed and the central macrochannel is rinsed with culture medium for 5 min. Fresh medium is then added to this channel.
After a given culture time (optionally according to the moment at which the axotomy experiment is carried out), the neuron cultures are fixed with a 4% paraformaldehyde solution (Sigma) so as to undergo analysis by immunocytochemistry. The circuits are labeled by immunofluorescence with an anti-MAP2 antibody (rabbit IgG, 1:3000; Chemicon, Temecula, USA), and an anti-β-III-tubulin monoclonal antibody (mouse IgG, 1:3000; Sigma) for labeling the cytoskeletal proteins. The circuits are fluorescently labeled with Hoechst 33342 (1:25000; Sigma) for labeling the nucleus. In a separate experiment, the circuits were also labeled by immunofluorescence with an anti-glial fibrillary acidic protein antibody (GFAP, rabbit IgG, 1:5000; DakoCytomation, Glostrup, Denmark) which makes it possible to label the astrocytes. A part of the cultures was subjected to fixing and extraction. This procedure makes it possible to eliminate the tubulin free in the cytoplasm while at the same time fixing the microtubules. These cultures were labeled by immunofluorescence with an anti-a-tubulin monoclonal antibody conjugated to the fluorophore FITC (Sigma) and labeled with phalloidin linked to an Alexa Fluor 555 (Invitrogen) so as to reveal the microtubules and the actin cytoskeleton, respectively. The images were acquired using an inverted epifluorescence microscope (Zeiss, Goettingen, Germany) equipped with a CoolSnap HQ2 camera (Roper Scientific, Ottobrunn, Germany) and using the micro-manager acquisition software (http://www.micro-manager.org).
The axonal degeneration is estimated by comparing the type of tubulin labeling of fragmented axons or of intact axons. Good survival, in culture, of the cortical neurons is dependent on the initial seeding density, which must be high. Consequently, a large number of cortical axons invade the central and distal chambers. Moreover, since the cortical axons have many branches, the immunohistochemical analysis of the axonal tubulin in the axonal chambers is therefore complex, and the axons are difficult to individualize. The proportion of axon entering the central chamber and emerging in the distal axonal chamber was estimated by calculating a ratio of intensity of overall fluorescence of the b3-tubulin labeling of identical surface areas captured in the central chamber and the distal axonal chamber. […]

striatal erk kinase = assay: Phosphorylation of striatal erk kinase in corticostriatal network, device D3 (Example 13); conditions: after seven days in vitro; cortical depolarization
Method: FIG. 18 represents microfluidic chambers separated by asymmetrical microchannels.
This experiment was carried out with the device D3.
The cortical neurons are seeded on the left and the striatal neurons on the right. After seven days in vitro, the cortical axons establish connections with the striatal neurons (β3-tubulin in green, striatal neurons in red (MAP2)).

Cerebellar neurons = assay: Axonal degeneration of cerebellar neurons after somatic staurosporin, microfluidic device D1 (Example 14); conditions: for axon-protecting effect against staurosporin-induced axonal degeneration: compound applied concomitantly to the axons only, staurosporin on the somas
Method: Cerebellar neurons are seeded into microfluidic devices according to the invention and treated with an apoptosis inducer (1 μM staurosporin, STS) at the somatic level. This induces axonal degeneration in the distal chamber (Phi). Apoptosis-blocking compounds (zVAD) or proteases of calpain type (Cal-Inh) are applied specifically to the axons (and not to the somas). The “axon-protecting” effect is quantified on the graph on the right in FIG. 19. Devices D1 are used. Neurons (in this case from the cerebellum) are seeded and their axons pass through the asymmetrical microchannels so as to reach the second chamber (or the 3rd if the device has three compartments). A stress (in this case staurosporin, which is a pro-apoptotic agent) is applied to the soma of the neurons. […] The effect of “axon-protecting” molecules can thus be evaluated. FIG. 19 illustrates the start of axonal degeneration induced by the application of a pro-apoptotic stress applied to the somato-dendritic compartment of neurons. This causes the propagation of a destructive signal in the axon, which then degenerates early, before the cell soma.

cortical axons = assay: Axotomy of the central portion of cortical axons in three-chamber device D4, Wallerian degeneration model (Example 15)
Method: The microfluidic device represented in image 4a of FIG. 20 is similar to that described previously with reference to FIGS. 1C to 1H and comprises three chambers. It is device D4. This makes it possible to apply molecules of interest on the central portion of the axons, for example a detergent (Triton X100, 0.1%), applied for 1 min. […] In this example, although the cortical axons sectioned in their central portion are still intact after one hour of section, they degenerate after 4 h. This constitutes a model of Wallerian degeneration (degeneration of the distal portion of axons). The potential of compounds which protect against this effect can be evaluated by applying them specifically in one or more of the chambers of the device. […] This experiment was carried out with device D4. The experiment, carried out on a corticostriatal network, makes it possible to illustrate that it is possible to objectivize a phenomenon of synaptic degeneration after application of a stress at the cortical level (in this case axotomy) (disappearance of Vglu-1 labeling which is specific for cortical presynaptic structures). […] FIGS. 20 and 21 illustrate the consequences of the axotomy of cortical axons of a corticostriatal network. […]

corticostriatal network = assay: Synaptic degeneration on a corticostriatal network after cortical axotomy, Vglut-1 presynaptic structures (Example 16); conditions: NAD added to striatal compartment at the time of axotomy / pretreated
Method: Photographs a and b of FIG. 21 represent cortical, central and striatal chambers of reconstructed corticostriatal networks in three-chamber microfluidic devices.
The neurons were labeled on MAP2 (blue), β3-tubulin (green) and Vglut-1 (red).
Photograph c is representative of cortical-presynaptic structures (Vglut1, red) attached to striatable dendrites (MAP2, blue) after 1, 2, 4 and 6 hours of axotomy or controlled culture or culture pretreated with NAD.
Photograph d illustrates the quantification of a presynaptic cortical structure attached to MAP2-positive striatal dendrites after cortical axotomy.
This experiment was carried out with device D4. The experiment, carried out on a corticostriatal network, makes it possible to illustrate that it is possible to objectivize a phenomenon of synaptic degeneration after application of a stress at the cortical level (in this case axotomy) (disappearance of Vglu-1 labeling which is specific for cortical presynaptic structures). […] FIGS. 20 and 21 illustrate the consequences of the axotomy of cortical axons of a corticostriatal network. This axotomy causes the propagation of a signal resulting in rapid degeneration of the presynaptic compartment (FIG. 21) of the corticostriatal junction, and then in degeneration of the cortical axons (FIG. 20).

CCCC[C@@H](C=O)NC(=O)[C@H](CC(C)C)NC(=O)[C@H](CC(C)C)NC(C)=O [ALLN, N-acetyl-Leu-Leu-Nle-CHO] (Ac-Leu-Leu-[Nle]-aldehyde)
occurrence of axon fragmentation after axotomy (cortical neurons): does not delay the occurrence of axon fragmentation | protective effect against axon fragmentation after axotomy (cortical neurons): absence of protective effect

[Cl-].[K+] [KCl]
phosphorylation of the striatal erk kinase (striatal erk kinase): triggers phosphorylation

C[C@]12N[C@H](Cc3ccccc31)c1ccccc12 [MK801]
phosphorylation of the striatal erk kinase (striatal erk kinase): inhibition

NC(=O)c1ccc[n+]([C@@H]2O[C@H](COP(=O)([O-])OP(=O)(O)OC[C@H]3O[C@@H](n4cnc5c(N)ncnc54)[C@H](O)[C@@H]3O)[C@@H](O)[C@H]2O)c1 [NAD, β-nicotinamide adenine dinucleotide hydrate]
degeneration of cut axons (cortical neurons; 5 mM pretreatment 24 h before axotomy, 8 h after axotomy (all control axons fragmented)): do not exhibit any sign of degeneration | persistence of axon protection (cortical neurons; 5 mM pretreatment 24 h before axotomy, 24 hours after axotomy): protection disappears | signs of axonal degeneration after axotomy (cortical neurons; neurons pretreated 24 h before axotomy with 5 mM): delayed | axon-protecting effect against staurosporin-induced axonal degeneration (Cerebellar neurons): delays this axonal degeneration | degeneration of transected cortical axons (axon-protecting effect) (cortical axons; after axotomy, NAD added to the striatal compartment at the time of axotomy, FIG. 20, hydrate): axon-protecting effect; also recorded: delays | presynaptic degeneration of the corticostriatal junction (Vglut-1) (corticostriatal network; FIG. 21, hydrate): delays presynaptic degeneration | presynaptic degeneration of the corticostriatal junction (Vglut-1) (corticostriatal network; FIG. 21, listed as NAD+, hydrate): Delays Deconnection

CN[C@@H]1C[C@H]2O[C@@](C)([C@@H]1OC)n1c3ccccc3c3c4c(c5c6ccccc6n2c5c31)C(=O)NC4 [staurosporin]
axon degeneration induced by stress applied to the soma (Cerebellar neurons; 1 μM staurosporin at the somatic level, axons in distal chamber, in 24 h): induces axon degeneration

COC(=O)C[C@H](NC(=O)[C@H](C)NC(=O)[C@@H](NC(=O)OCc1ccccc1)C(C)C)C(=O)CF [zVAD] (Cbz-Val-Ala-Asp(OMe)-CH2F)
occurrence of axon fragmentation after axotomy (cortical neurons): does not delay the occurrence of axon fragmentation | protective effect against axon fragmentation after axotomy (cortical neurons): absence of protective effect | axon-protecting effect against staurosporin-induced axonal degeneration (Cerebellar neurons): prevents this degeneration; also recorded: delays this axonal degeneration

Triton X100
section of axons by detergent (cortical axons; Triton X100 0.1% applied for 1 min on central portion of the axons): immediate section of the central portion of the axons

saponin
destruction of axon segments by detergent flow (cortical neurons; 0.1% saponin, flow for 2 minutes in the central compartment): immediate destruction of the axon segments contained in the central compartment
